Where no end group is shown, it is not given here. [ ]: non-standard residue; d: D form.
How the values were obtained:
SaOS-2 cells [1] = test: TGF-β release from SaOS-2 cells; assay type: cell-based, Human; conditions: 1e-12-1e-6 M, 8 hours
Procedure: Human osteoblast SaOS-2 cells [sourced from The European Collection of Cell Cultures (ECACC)] were seeded at a density of 2e5 cells/well in 24 well plates [Nunc, Roskilde, Denmark]. The cells were incubated in media [Life Technologies] supplemented with 10% FBS. Before adding test peptides of the invention, the media were changed with fresh 0.1% FBS-containing media 24 h previously. On the day of experimentation, media were removed and 1 ml of respective peptides of the invention GIP/Xenin, GIP/Xenin Asp and GIP/Xenin Glu [(DAla2)GIP/xenin-8-Gln, (DAla2)GIP/xenin-8-Gln(L-Asp), and (DAla2)GIP/xenin-8-Gln(L-Glu) respectively] (1e-12-1e-6 M) were added to each well. The plates were then incubated at 37° C. for a period of 8 hours. After incubation, media was collected and TGF-β released in the supernatant measured using a TGF-β Immunoassay kit (Quantikine, R&D Systems) according to the manufacturer's instructions. The concentration of TGF-β was calculated from a standard curve of recombinant human TGF-β ranging from […].

SaOS-2 cells [2] = test: IGF-1 release from SaOS-2 cells; assay type: cell-based, Human; conditions: 1e-12-1e-6 M, 8 hours
Procedure: SaOS-2 cells were seeded at a density of 2e5 cells/well in 6-well plates in 10% FBS containing media. Media were changed 24 hours prior to experimentation with 0.1% FBS. Media was then removed, followed by an addition of 1 ml of test peptides of the invention (1e-12-1e-6 M). Plates were incubated at 37° C. for 8 hours. After incubation, media was collected and IGF-1 released in the supernatant was measured using IGF-1 Immunoassay kit (Quantikine, R&D Systems) according to the manufacturer's instructions. The concentration of IGF-1 in the samples was determined from a standard curve of recombinant human IGF-1 in the range of 0-60 ng/ml.

high fat fed mice [3] = test: Glucose tolerance test after 42 days treatment; assay type: in vivo
Procedure: FIG. 14A-14B illustrate tests conducted after once daily treatment with saline, GIP/Xenin hybrid, GIP/Xenin hybrid Asp and GIP/Xenin hybrid Glu for 42 days. (FIG. 14A) Blood glucose before and after i.p injection of glucose (18 mmol/kg bw) alone in 18 hr fasted mice. (FIG. 14B) AUC values for blood glucose for 0-105 min are shown in insets. Values represent means±SEM for 6-7 mice. *P<0.05, **P<0.01 and ***P<0.001 compared to saline control;

high fat fed mice [4] = test: 42 day once daily study in high fat fed mice (body weight, composition, food intake, non-fasting glucose); assay type: in vivo; conditions: 25 nmol/kg once daily, 42 days
Source text: (§1) FIG. 10 illustrates body weight as measured for 3 days before and 42 days during (indicated by black horizontal bar) once daily treatment with saline vehicle (0.9% w/v NaCl), GIP/Xenin hybrid, GIP/Xenin hybrid Asp and GIP/Xenin hybrid Glu (each peptide at 25 nmol/kg bw). Values represent means±SEM for 5 mice;
FIG. 11A-11B illustrate (FIG. 11A) % Fat mass and (FIG. 11B) % Lean mass as measured by DEXA scanning in high fat fed mice following 42 days treatment with GIP/Xenin hybrid, GIP/Xenin hybrid Asp and GIP/Xenin hybrid Glu. Values represent means±SEM for 3-5 mice;
as §1, with “12” for “10”, “cumulative energy intake” for “body weight”, “days” for “days during”, “bar) during” for “bar)”, “3-5 mice. ^ΔP<0.05, ^ΔΔP<0.01, ^ΔΔΔP<0.001 compared to saline control;” for “5 mice;”
as §1, with “13” for “10”, “non fasting blood glucose” for “body weight”, “mice; […]” for “mice;”

high fat fed mice [5] = test: DEXA bone mineral density and content after 42 days treatment; assay type: in vivo; conditions: P<0.05 and P<0.01 respectively
Procedure: The DEXA (dual energy X-ray absorptiometry) analysis [Lunar PIXImus, Inside Outside Sales] was performed on unconscious mice and the whole body was scanned. Various parameters like bone mineral density (BMD), bone mineral content (BMC), lean mass, fat mass and percentage of total fat were measured according to the manufacturer's instructions.

SaOS-2 cells [6] = test: cAMP production in SaOS-2 cells; assay type: cell-based, Human; conditions: 60 min, 200 μM IBMX
Procedure: SaOS-2 cells were seeded at a density of 5e4 cells in 96-well plates. Cells were cultured in α-MEM 1× media supplemented with 10% FBS for 24 hours in order to allow attachment to the plate. Before the experiment, cells were washed with Hank's Balanced Salt Solution (HBSS). Cells were then incubated with various concentrations (1e-12-1e-6 M) of test peptides of the invention supplemented with 200 μM of 3-isobutyl-1-methylxanthine (IBMX). Plates were then incubated for 60 minutes at 37° C. Following this step, cells were washed 3 times with 150 μl PBS. Cell lysis was performed with 150 μl cell lysis buffer (R&D Systems) and a freeze (−20° C.)-thaw (37° C.) cycle was carried out. The contents were then collected into 500 μl tubes and centrifuged at 600 rpm for 10 min (4° C.). The supernatant was collected and cAMP was measured using a cAMP assay kit (R&D Systems) according to the manufacturer's instructions. The concentration of cAMP was calculated from a standard curve of cAMP ranging from 0 to 240 pmol/ml.

high fat fed mice [7] = test: Microcomputed tomography of tibia trabecular and cortical bone after 42 days treatment; assay type: in vivo; conditions: microCT
Procedure: The tibia was used to investigate trabecular and cortical bone microstructural morphology by microCT analysis with a Skyscan 1172 microtomograph (Bruker, Kontich, Belgium) equipped with an X-ray tube working at 69 kV/100 μA. The pixel size was fixed at 8.3 μm, the rotation step at 0.25° and exposure was performed with a 0.5-mm aluminum filter. Bone mass and morphometry parameters were calculated with the CTan software (release 1.11.4.2, Bruker). The trabecular parameters were assessed at the volume of interest (VOI), located 1 mm below the growth plate and spanning 2.5 mm in height. Trabecular bone volume (BV/TV, in %), trabecular number (Tb.N, in 1/mm) and trabecular separation (Tb.Sp, in μm) were measured according to guidelines and nomenclature proposed by the American Society for Bone and Mineral Research. Cortical parameters were determined at the midshaft tibia with a lab-made routine using ImageJ. […] (Ma.Ar), cortical area (Ct.Ar), total area (Tt.Ar), cortical thickness (Ct.Th, in μm) and cross-sectional moment of inertia (J in mm4) were also measured according to guidelines and nomenclature on bone histomorphometry proposed by the American Society for Bone and Mineral Research.

high fat fed mice [8] = test: Insulin tolerance test after 42 days treatment; assay type: in vivo; conditions: insulin 25 U/kg i.p., non-fasted
Procedure: FIG. 15A-15B illustrate Blood glucose (FIG. 15A) and blood glucose AUC (FIG. 15B) values for 0-105 min (shown in inset) following 42 days treatment with saline, GIP/Xenin hybrid, GIP/Xenin hybrid Asp and GIP/Xenin hybrid Glu (each peptide at 25 nmol/kg bw), and subsequent insulin (25 U/kg bw) injection intraperitoneally (at t=0) in non-fasted mice. Values represent means±SEM for 5 mice. *P<0.05, **P<0.01 and ***P<0.001 compared to saline control;

high fat fed mice [9] = test: Three-point bending of bone after 42 days treatment; assay type: in vivo
Procedure: Femur and tibia bones were extracted at the end of the experiment using a scalpel and fine scissors, soft tissue removed and stored in 70% ethanol. Three-point bending strength was measured with a constant span length of 10 mm. Femurs were positioned horizontally with the anterior surface facing upwards, centered on the support and the pressing force was applied vertically to the midshaft of the bone. Each bone was tested with a loading speed of 2 mm/min until failure with a 90 N load cell. The load-time curve obtained was converted into a load-displacement curve by the MTS testSuite TW software (MTS, Créteil, France). Ultimate load and ultimate displacement were respectively defined as the maximum load and maximum displacement recorded before break-down of the bone. Stiffness was calculated as the slope of the elastic deformation of the bone. The total absorbed energy was defined as the total area under the load-displacement curve and represents the total energy absorbed by the midshaft femur. The yield was defined as the load necessary to initiate the transformation from elastic to plastic deformation. The post-yield energy was defined as the area under the load-displacement curve from yield until failure and represents the energy absorbed by bone during plastic deformation.

Row | Substance | TGF-β release from SaOS-2 cells (SaOS-2 cells [1]) | IGF-1 release from SaOS-2 cells (SaOS-2 cells [2]) | Blood glucose overall AUC after glucose challenge (high fat fed mice [3]; 0-105 min, glucose 18 mmol/kg) | Blood glucose at 30, 60 and 105 min after glucose challenge (high fat fed mice [3]; glucose 18 mmol/kg i.p.) | Body weight, fat and lean mass, food intake (high fat fed mice [4]) | Tibia bone mineral density (high fat fed mice [5]) | Lowest effective concentration for cAMP production (SaOS-2 cells [6]) [nM] | Cortical bone area, thickness and moment of inertia / structural properties of cortical bone (high fat fed mice [7]) | Blood glucose concentrations after glucose challenge (high fat fed mice [3]; glucose 18 mmol/kg) | Hypoglycaemic response to exogenous insulin (high fat fed mice [8]) | Bone ultimate load and stiffness (high fat fed mice [9])
1 | TYR-(d)ALA-GLU-GLY-THR-PHE-ILE-SER-ASP-TYR-SER-ILE-ALA-MET-HIS-PRO-GLN-GLN-PRO-TRP-ILE-LEU-GLY-ALA-ALA-ASP-ASP-ASP-ASP-ASP-ASP (Y[dA]EGTFISDYSIAMHPQQPWILGAADDDDDD; also: Gln side-chain L-Asp modification; listed as Homo sapiens) [GIP/Xenin Asp] | dose-dependently stimulated | dose-dependently stimulated | significant (P<0.05) reduction in overall AUC measures | significantly (P<0.01 to P<0.001) | no significant change | reduced | 10 |  |  |  | 
2 | TYR-(d)ALA-GLU-GLY-THR-PHE-ILE-SER-ASP-TYR-SER-ILE-ALA-MET-HIS-PRO-GLN-GLN-PRO-TRP-ILE-LEU-GLY-ALA-ALA-GLU-GLU-GLU-GLU-GLU-GLU (Y[dA]EGTFISDYSIAMHPQQPWILGAAEEEEEE; also: Gln side-chain L-Glu modification; listed as Homo sapiens) [GIP/Xenin Glu] | dose-dependently stimulated | dose-dependently stimulated |  |  | no significant change | reduced | 1000 | reduced | also reduced blood glucose concentrations, but not as effectively as GIP/Xenin Asp | more pronounced hypoglycaemic response | negative effects (P<0.05 to P<0.001)

From patent US11738065B2, “Polypeptides and analogues thereof for use in the treatment of diabetes and bone disorders” (UNIVERSITY OF ULSTER, priority 2015, dated 2023)
